Assay results published in patent US10407422B2, “Triazolopyridine inhibitors of myeloperoxidase” (priority 2015, dated 2019).

Legend:
myeloperoxidase (MPO) [1] = biological target: T1, myeloperoxidase (MPO) (Homo sapiens (Human), UniProt P05164); experiment: MPO peroxidation assay (Amplex Red assay); format: biochemical; settings: potency range class
Method in brief: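 IC50 values come from a four-parameter fit of rates taken from the linear 180-540 s portion of a 15 min kinetic read of resorufin (Ex 535/Em 590 nm). Amplex Red (200 μM) plus 10 mM H2O2 was added after a 10 min room-temperature preincubation of inhibitor with 200 pM MPO and 40 nM H2O2 in 100 mM KPi, pH 7.4.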

myeloperoxidase (MPO) [2] = biological target: T1, myeloperoxidase (MPO); experiment: MPO chlorination assay (APF assay); format: biochemical; settings: potency range class
Method in brief: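 Chlorinating activity followed by APF cleavage to fluorescein (485/535 nm, 3 min kinetic read) after adding APF and 10 μM H2O2. Beforehand, 200 pM enzyme, compound and 120 mM NaCl sat 10 min at room temperature in 100 mM KPi, pH 7.4. Initial-rate slopes gave % inhibition; IC50 by Hill-slope fit.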

T1 sequence (P05164 49-745): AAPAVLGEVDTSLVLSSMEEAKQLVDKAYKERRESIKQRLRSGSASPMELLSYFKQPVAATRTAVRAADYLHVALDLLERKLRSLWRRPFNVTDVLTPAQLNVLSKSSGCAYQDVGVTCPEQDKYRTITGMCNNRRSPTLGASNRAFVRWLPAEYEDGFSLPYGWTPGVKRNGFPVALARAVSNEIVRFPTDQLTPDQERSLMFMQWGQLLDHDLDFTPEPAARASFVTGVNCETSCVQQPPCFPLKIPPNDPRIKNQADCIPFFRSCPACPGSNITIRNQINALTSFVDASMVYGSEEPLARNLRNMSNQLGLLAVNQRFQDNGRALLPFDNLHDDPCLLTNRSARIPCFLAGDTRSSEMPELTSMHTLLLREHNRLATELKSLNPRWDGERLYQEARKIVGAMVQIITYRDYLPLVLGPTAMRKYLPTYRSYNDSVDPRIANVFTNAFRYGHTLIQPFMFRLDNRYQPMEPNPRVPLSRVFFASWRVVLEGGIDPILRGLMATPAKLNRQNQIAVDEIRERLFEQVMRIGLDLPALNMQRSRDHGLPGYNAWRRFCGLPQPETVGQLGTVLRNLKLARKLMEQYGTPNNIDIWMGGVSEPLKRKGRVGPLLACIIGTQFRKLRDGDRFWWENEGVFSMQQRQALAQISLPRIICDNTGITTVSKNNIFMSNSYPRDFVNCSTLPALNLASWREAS

Row | SMILES | IC50 (myeloperoxidase (MPO) [1]) [nM] | IC50 (myeloperoxidase (MPO) [2]) [nM]
1 | Nc1cc(Cc2cnn(Cc3cccc(OCCC4CCc5ccccc54)c3)c2)c2nn[nH]c2n1 (centres unmarked) [Example 233, 7-{[1-({3-[2-(2,3-Dihydro-1H-inden-1-yl)ethoxy]phenyl}methyl)-1H-pyrazol-4-yl]methyl}-3H-[1,2,3]triazolo[4,5-b]pyridin-5-amine] | 101 to 999 | 101 to 999
2 | Nc1cc(Cc2cnn(Cc3cccc(OCC4CCc5ccccc54)c3)c2)c2nn[nH]c2n1 (centres unmarked) [Example 235, 7-[(1-{[3-(2,3-Dihydro-1H-inden-1-ylmethoxy)phenyl]methyl}-1H-pyrazol-4-yl)methyl]-3H-[1,2,3]triazolo[4,5-b]pyridin-5-amine] | 101 to 999 | 101 to 999
3 | Nc1cc(Cc2cnn(Cc3cccc(Oc4cccc(C5CCNCC5)c4)c3)c2)c2nn[nH]c2n1 [Example 236, 7-{[1-({3-[3-(Piperidin-4-yl)phenoxy]phenyl}methyl)-1H-pyrazol-4-yl]methyl}-3H-[1,2,3]triazolo[4,5-b]pyridin-5-amine] | 1 to 100 | 1 to 100
4 | Nc1cc(Cc2cnn(Cc3cccc(Oc4cccc5c4CNCC5)c3)c2)c2nn[nH]c2n1 [Example 237, 7-[(1-{[3-(1,2,3,4-Tetrahydroisoquinolin-8-yloxy)phenyl]methyl}-1H-pyrazol-4-yl)methyl]-3H-[1,2,3]triazolo[4,5-b]pyridin-5-amine] | 1 to 100 | 1 to 100
5 | Nc1cc(Cc2cnn(Cc3cccc(Oc4cccc(C5CCCN5)c4)c3)c2)c2nn[nH]c2n1 (centres unmarked) [Example 238, 7-{[1-({3-[3-(Pyrrolidin-2-yl)phenoxy]phenyl}methyl)-1H-pyrazol-4-yl]methyl}-3H-[1,2,3]triazolo[4,5-b]pyridin-5-amine] | 1 to 100 | 1 to 100
6 | COC(=O)[C@@H]1C[C@@H](Oc2cccc(Cn3cc(Cc4cc(N)nc5[nH]nnc45)cn3)c2)CN1 [Example 245, Methyl (2S,4R)-4-(3-{[4-({5-amino-3H-[1,2,3]triazolo[4,5-b]pyridin-7-yl}methyl)-1H-pyrazol-1-yl]methyl}phenoxy)pyrrolidine-2-carboxylate] | 101 to 999 | 101 to 999
7 | Cc1nnc([C@@H]2C[C@@H](Oc3cccc(Cn4cc(Cc5cc(N)nc6[nH]nnc56)cn4)c3)CN2)o1 [Example 246, 7-({1-[(3-{[(3R,5S)-5-(5-Methyl-1,3,4-oxadiazol-2-yl)pyrrolidin-3-yl]oxy}phenyl)methyl]-1H-pyrazol-4-yl}methyl)-3H-[1,2,3]triazolo[4,5-b]pyridin-5-amine] | 1000 to 10000 | 1000 to 10000
8 | CN(C)C(=O)[C@@H]1C[C@@H](Oc2cccc(Cn3cc(Cc4cc(N)nc5[nH]nnc45)cn3)c2)CN1 [Example 247, (2S,4R)-4-(3-{[4-({5-Amino-3H-[1,2,3]triazolo[4,5-b]pyridin-7-yl}methyl)-1H-pyrazol-1-yl]methyl}phenoxy)-N,N-dimethylpyrrolidine-2-carboxamide] | 101 to 999 | 101 to 999
9 | NCc1cccc(Cn2cc(Cc3cc(N)nc4[nH]nnc34)cn2)c1 [Example 249, 7-[(1-{[3-(Aminomethyl)phenyl]methyl}-1H-pyrazol-4-yl)methyl]-3H-[1,2,3]triazolo[4,5-b]pyridin-5-amine] | 1 to 100 | 101 to 999
10 | NCc1ccc(Cn2cc(Cc3cc(N)nc4[nH]nnc34)cn2)cc1 [Example 250, 7-[(1-{[4-(Aminomethyl)phenyl]methyl}-1H-pyrazol-4-yl)methyl]-3H-[1,2,3]triazolo[4,5-b]pyridin-5-amine] | 1 to 100 | 1 to 100
11 | CN(C)CC(=O)NCc1ccc(Cn2cc(Cc3cc(N)nc4[nH]nnc34)cn2)cc1 [Example 251, N-[(4-{[4-({5-Amino-3H-[1,2,3]triazolo[4,5-b]pyridin-7-yl}methyl)-1H-pyrazol-1-yl]methyl}phenyl)methyl]-2-(dimethylamino)acetamide] | 1 to 100 | 101 to 999
12 | CN1CCN(CC(=O)NCc2ccc(Cn3cc(Cc4cc(N)nc5[nH]nnc45)cn3)cc2)CC1 [Example 252, N-[(4-{[4-({5-Amino-3H-[1,2,3]triazolo[4,5-b]pyridin-7-yl}methyl)-1H-pyrazol-1-yl]methyl}phenyl)methyl]-2-(4-methylpiperazin-1-yl)acetamide] | 101 to 999 | 101 to 999
13 | Nc1cc(Cc2cnn(Cc3ccc(CNC(=O)CN4CCCC4)cc3)c2)c2nn[nH]c2n1 [Example 253, N-[(4-{[4-({5-Amino-3H-[1,2,3]triazolo[4,5-b]pyridin-7-yl}methyl)-1H-pyrazol-1-yl]methyl}phenyl)methyl]-2-(pyrrolidin-1-yl)acetamide] | 101 to 999 | 101 to 999
14 | Nc1cc(Cc2cnn(Cc3cccc(CN4CCCC4)c3)c2)c2nn[nH]c2n1 [Example 254, 7-[(1-{[3-(Pyrrolidin-1-ylmethyl)phenyl]methyl}-1H-pyrazol-4-yl)methyl]-3H-[1,2,3]triazolo[4,5-b]pyridin-5-amine] | 1 to 100 | 101 to 999

Further lines, results first:

Row | IC50 (myeloperoxidase (MPO) [1]) [nM] | IC50 (myeloperoxidase (MPO) [2]) [nM] | SMILES
15 | 1 to 100 | 1 to 100 | Nc1cc(Cc2cnn(Cc3cccc(OC4CCCNC4)c3)c2)c2nn[nH]c2n1 (centres unmarked) [Example 234, 7-[(1-{[3-(Piperidin-3-yloxy)phenyl]methyl}-1H-pyrazol-4-yl)methyl]-3H-[1,2,3]triazolo[4,5-b]pyridin-5-amine]
16 | 1 to 100 | 1 to 100 | Nc1cc(Cc2cnn(Cc3cccc(O[C@@H]4CCNC4)c3)c2)c2nn[nH]c2n1 [Example 239, 7-{[1-({3-[(3R)-Pyrrolidin-3-yloxy]phenyl}methyl)-1H-pyrazol-4-yl]methyl}-3H-[1,2,3]triazolo[4,5-b]pyridin-5-amine]
17 | 1 to 100 | 1 to 100 | Nc1cc(Cc2cnn(Cc3cccc(O[C@H]4CCNC4)c3)c2)c2nn[nH]c2n1 [Example 240, 7-{[1-({3-[(3S)-Pyrrolidin-3-yloxy]phenyl}methyl)-1H-pyrazol-4-yl]methyl}-3H-[1,2,3]triazolo[4,5-b]pyridin-5-amine]
18 | 1 to 100 | 101 to 999 | CN1CC[C@@H](Oc2cccc(Cn3cc(Cc4cc(N)nc5[nH]nnc45)cn3)c2)C1 [Example 241, 7-({1-[(3-{[(3R)-1-Methylpyrrolidin-3-yl]oxy}phenyl)methyl]-1H-pyrazol-4-yl}methyl)-3H-[1,2,3]triazolo[4,5-b]pyridin-5-amine]
19 | 1 to 100 | 1 to 100 | Nc1cc(Cc2cnn(Cc3cccc(OC[C@@H]4CCCN4)c3)c2)c2nn[nH]c2n1 [Example 242, 7-{[1-({3-[(2S)-Pyrrolidin-2-ylmethoxy]phenyl}methyl)-1H-pyrazol-4-yl]methyl}-3H-[1,2,3]triazolo[4,5-b]pyridin-5-amine]
20 | 1 to 100 | 1 to 100 | Nc1cc(Cc2cnn(Cc3cccc(OC[C@H]4CCCN4)c3)c2)c2nn[nH]c2n1 [Example 243, 7-{[1-({3-[(2R)-Pyrrolidin-2-ylmethoxy]phenyl}methyl)-1H-pyrazol-4-yl]methyl}-3H-[1,2,3]triazolo[4,5-b]pyridin-5-amine]
21 | 1 to 100 | 1 to 100 | Nc1cc(Cc2cnn(Cc3cccc(OC[C@@H]4CCNC4)c3)c2)c2nn[nH]c2n1 [Example 244]
22 | 1 to 100 | 101 to 999 | Nc1cc(Cc2cnn(Cc3cccc(O[C@H]4CN[C@H](CO)C4)c3)c2)c2nn[nH]c2n1 [Example 248, [(2S,4R)-4-(3-{[4-({5-Amino-3H-[1,2,3]triazolo[4,5-b]pyridin-7-yl}methyl)-1H-pyrazol-1-yl]methyl}phenoxy)pyrrolidin-2-yl]methanol]
